Assay results reported in the NIST ThermoML archive (doi:10.1016/j.fluid.2007.07.066).
Numbers after ± are expanded uncertainties.

Experiment: wn = mass fraction of the nth substance listed
Conditions: 101 kPa, Liquid; for speed of sound: Sing-around technique in a fixed-path interferometer

CCCO [propan-1-ol] + O
Conditions | mass density, 283.15 K [kg/m3] | mass density, 288.15 K [kg/m3] | mass density, 293.15 K [kg/m3] | mass density, 298.15 K [kg/m3] | mass density, 303.15 K [kg/m3] | speed of sound, 283.15 K [m/s] | speed of sound, 288.15 K [m/s] | speed of sound, 293.15 K [m/s] | speed of sound, 298.15 K [m/s] | speed of sound, 303.15 K [m/s]
w1 = 0.05 | 992.444 ± 0.17 | 991.727 ± 0.17 | 990.715 ± 0.17 | 989.431 ± 0.17 | 987.905 ± 0.17 | 1501.2 ± 0.82 | 1514.5 ± 0.83 | 1526.2 ± 0.83 | 1536.2 ± 0.84 | 1544.7 ± 0.84
w1 = 0.1 | 987.274 ± 0.19 | 986.285 ± 0.2 | 985.011 ± 0.2 | 983.475 ± 0.2 | 981.701 ± 0.2 | 1547.4 ± 0.84 | 1555.6 ± 0.84 | 1562.4 ± 0.85 | 1568 ± 0.85 | 1572.2 ± 0.85
w1 = 0.15 | 983.045 ± 0.21 | 981.663 ± 0.22 | 980.011 ± 0.22 | 978.117 ± 0.22 | 976.004 ± 0.22 | 1584 ± 0.86 | 1586.5 ± 0.86 | 1588.1 ± 0.86 | 1588.6 ± 0.86 | 1588.1 ± 0.85
